The assay has as its target human mGluR4 (Homo sapiens, UniProt Q14833). The assay is described as follows: potentiation of human mGluR4 in transfected CHO cells, Ca2+-sensitive dye fluorescence, EC20 agonist. As to conditions: for Emax: CHO, read-out: % Glu Max.
[1] abbreviates: EC50 (nM), potentiation of EC20 agonist response, Table I.
Where [2] appears, read: hEC50, human mGluR4 potentiation, unit inferred.

The structures appear in SMILES notation.

Sequence of human mGluR4 (Q14833 33-912): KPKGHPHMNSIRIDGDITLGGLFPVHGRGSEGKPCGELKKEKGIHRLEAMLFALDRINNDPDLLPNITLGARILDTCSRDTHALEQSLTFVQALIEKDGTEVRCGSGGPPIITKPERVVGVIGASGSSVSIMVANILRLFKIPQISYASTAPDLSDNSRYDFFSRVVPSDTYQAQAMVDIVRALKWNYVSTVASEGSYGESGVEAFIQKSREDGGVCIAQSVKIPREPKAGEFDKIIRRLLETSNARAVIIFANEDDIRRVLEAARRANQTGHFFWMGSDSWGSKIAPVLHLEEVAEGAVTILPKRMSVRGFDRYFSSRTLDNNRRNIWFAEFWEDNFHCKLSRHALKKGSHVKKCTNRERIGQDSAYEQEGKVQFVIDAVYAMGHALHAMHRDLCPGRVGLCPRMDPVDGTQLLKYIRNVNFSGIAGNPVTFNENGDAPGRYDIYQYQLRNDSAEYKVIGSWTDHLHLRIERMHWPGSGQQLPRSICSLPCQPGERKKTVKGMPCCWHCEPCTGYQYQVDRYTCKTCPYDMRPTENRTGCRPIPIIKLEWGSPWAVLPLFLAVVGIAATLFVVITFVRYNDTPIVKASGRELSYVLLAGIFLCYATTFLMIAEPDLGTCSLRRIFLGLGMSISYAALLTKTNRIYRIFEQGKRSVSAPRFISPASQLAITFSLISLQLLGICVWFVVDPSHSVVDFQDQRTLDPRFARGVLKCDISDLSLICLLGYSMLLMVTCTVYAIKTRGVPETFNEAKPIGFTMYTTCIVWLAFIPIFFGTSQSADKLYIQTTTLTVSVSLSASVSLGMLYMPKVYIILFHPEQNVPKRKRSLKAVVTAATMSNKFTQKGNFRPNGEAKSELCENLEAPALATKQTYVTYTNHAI

A word on the EC50: it is the concentration needed to bring the measured effect to its halfway point. Consider `O=C(Nc1ccn(S(=O)(=O)Cc2ccccc2)c1)c1ccco1` [Example 1, N-(1-(benzylsulfonyl)-1H-pyrrol-3-yl)furan-2-carboxamide], for which the Emax came to 227%. The EC50 under setting [1] is 6410 nM. On to `O=C(Nc1ccn(S(=O)(=O)Cc2ccccc2)c1)c1ccccn1` [Example 2, N-(1-(benzylsulfonyl)-1H-pyrrol-3-yl)picolinamide], for which the Emax came to 275%. Also, under setting [1], the EC50 turned out to be 562 nM. Turning to `COc1cccc(C(=O)Nc2ccn(S(=O)(=O)Cc3ccccc3)c2)c1` [Example 3, N-(1-(benzylsulfonyl)-1H-pyrrol-3-yl)-3-methoxybenzamide], the Emax was 39%. For the same compound, the EC50 under setting [1] was greater than 20000 nM. Consider `O=C(Nc1ccn(S(=O)(=O)c2ccccc2)c1)c1ccccn1` [Example 4, N-(1-(phenylsulfonyl)-1H-pyrrol-3-yl)picolinamide], for which the Emax amounted to 59%. Besides, under setting [1], the half-maximal effective concentration (EC50) was found to be 280 nM. For `O=C(Nc1ccn(S(=O)(=O)c2ccccc2)c1)c1ccccc1` [Example 5, N-(1-(phenylsulfonyl)-1H-pyrrol-3-yl)benzamide], the Emax stood at 93%. The EC50 under setting [1] stood at 8170 nM. Taken in the same sequence, the figures for `O=C(Nc1ccn(S(=O)(=O)Cc2ccccc2)c1)c1ccccc1` [Example 6, N-(1-(benzylsulfonyl)-1H-pyrrol-3-yl)benzamide] were 55% and 951 nM. As to `O=C(Nc1ccn(S(=O)(=O)c2ccccc2F)c1)c1ccccn1` [Example 8], the Emax was 116%. Besides, the EC50 under setting [1] was determined as 174 nM. For the compound `Cc1ccccc1S(=O)(=O)n1ccc(NC(=O)c2ccccn2)c1` [Example 9], the Emax was found to be 67%. Further, under setting [1], the EC50 was 198 nM. `O=C(Nc1ccn(S(=O)(=O)c2ccccc2C(F)(F)F)c1)c1ccccn1` [Example 10]: the Emax was 101%. Also, the EC50 under setting [1] came out at 526 nM. Turning to `O=C(Nc1ccn(S(=O)(=O)c2ccccc2Cl)c1)c1ccccn1` [Example 11], the Emax was found to be 91%. For the same compound, the EC50 under setting [1] worked out at 222 nM. Taken in the same sequence, the figures for `N#Cc1cccc(CS(=O)(=O)n2ccc(NC(=O)c3ccccn3)c2)c1` [Example 26] were 141% and 5080 nM. As for `O=C(Nc1ccn(S(=O)(=O)Cc2ccc(Cl)c(Cl)c2)c1)c1ccccn1` [Example 34], the Emax amounted to 159%.

On to `O=C(Nc1ccn(S(=O)(=O)c2ccc3ccccc3c2)c1)c1ccccn1` [Example 36], for which the Emax stood at 58%. Moreover, the EC50 under setting [1] is greater than 10000 nM.

As for `O=C(Nc1ccn(S(=O)(=O)Cc2ccccc2)c1)c1cc(F)ccn1` [Example 39, N-(1-(benzylsulfonyl)-1H-pyrrol-3-yl)-4-fluoropicolinamide], the Emax is 35%. Further, the EC50 under setting [1] came to 369 nM. Consider `O=C(Nc1ccn(S(=O)(=O)CCc2ccccc2)c1)c1ccccn1` [Example 40, N-(1-(phenethylsulfonyl)-1H-pyrrol-3-yl)picolinamide], for which the Emax turned out to be 152%. Moreover, under setting [1], the EC50 is 483 nM. Taken in the same sequence, the figures for `O=C(Nc1ccn(S(=O)(=O)Cc2ccccc2)c1)c1cccc(F)n1` [Example 41, N-(1-(benzylsulfonyl)-1H-pyrrol-3-yl)-6-fluoropicolinamide] were 76% and 574 nM. The like results for `O=C(Nc1ccn(S(=O)(=O)Cc2ccccc2)c1)c1cscn1` [Example 42, N-(1-(benzylsulfonyl)-1H-pyrrol-3-yl)thiazole-4-carboxamide] were, in that order, 129% and 4620 nM. In the case of `Cc1cccc(C(=O)Nc2ccn(S(=O)(=O)Cc3ccccc3)c2)n1` [Example 43, N-(1-(benzylsulfonyl)-1H-pyrrol-3-yl)-6-methylpicolinamide], the Emax worked out at 90%. For the same compound, under setting [1], the EC50 came out at 9540 nM.

As for `O=C(Nc1ccn(S(=O)(=O)Cc2ccccc2)c1)c1nccs1` [Example 44, N-(1-(benzylsulfonyl)-1H-pyrrol-3-yl)thiazole-2-carboxamide], the Emax worked out at 175%. Besides, the EC50 under setting [1] came to 4380 nM.

In the case of `O=C(Nc1ccn(S(=O)(=O)Cc2ccccc2)c1)c1ccncn1` [Example 45, N-(1-(benzylsulfonyl)-1H-pyrrol-3-yl)pyrimidine-4-carboxamide], the Emax turned out to be 57%. Moreover, under setting [1], the EC50 was greater than 20000 nM.

Turning to `Cc1ccc(CS(=O)(=O)n2ccc(NC(=O)c3ccccn3)c2)cc1` [Example 47, N-(1-((4-methylbenzyl)sulfonyl)-1H-pyrrol-3-yl)picolinamide], the EC50 under setting [2] came to 280 nM.

For the compound `O=C(Nc1ccn(S(=O)(=O)c2ccccc2)c1)c1nccs1` [Example 50, N-(1-(phenylsulfonyl)-1H-pyrrol-3-yl)thiazole-2-carboxamide], the EC50 under setting [2] came out at 2680 nM. Still for that read-out and setting: the result for `O=C(Nc1ccn(S(=O)(=O)Cc2ccccc2Cl)c1)c1nccs1` [Example 52, N-(1-((2-chlorobenzyl)sulfonyl)-1H-pyrrol-3-yl)thiazole-2-carboxamide] reads 767 nM; that for `Cc1cccc(S(=O)(=O)n2ccc(NC(=O)c3nccs3)c2)c1` [Example 53, N-(1-(m-tolylsulfonyl)-1H-pyrrol-3-yl)thiazole-2-carboxamide], 767 nM; that for `CC(=O)Oc1ccccc1C(=O)Nc1ccn(S(=O)(=O)c2cccc(C)c2)c1` [Example 54, 2-((1-(m-tolylsulfonyl)-1H-pyrrol-3-yl)carbamoyl)phenyl acetate], 1720 nM. The same measure, in the same setting: as for `O=C(Nc1ccn(S(=O)(=O)Cc2ccc(F)cc2F)c1)c1nccs1` [Example 55, N-(1-((2,4-difluorobenzyl)sulfonyl)-1H-pyrrol-3-yl)thiazole-2-carboxamide], the figure is 1910 nM. The same measure, in the same setting: as for `O=C(Nc1ccn(S(=O)(=O)Cc2ccc(F)cc2F)c1)c1ccco1` [Example 56, N-(1-((2,4-difluorobenzyl)sulfonyl)-1H-pyrrol-3-yl)furan-2-carboxamide], the figure is 3690 nM; as for `O=C(Nc1ccn(S(=O)(=O)Cc2ccc(F)cc2Cl)c1)c1ccccn1` [Example 57, N-(1-((2-chloro-4-fluorobenzyl)sulfonyl)-1H-pyrrol-3-yl)picolinamide], 125 nM. With `CC(C)(C)c1ccc(S(=O)(=O)n2ccc(NC(=O)c3ccccn3)c2)cc1` [Example 58, N-(1-((4-(tert-butyl)phenyl)sulfonyl)-1H-pyrrol-3-yl)picolinamide], under setting [2], the EC50 is 16800 nM. Still for that read-out and setting: the result for `O=C(Nc1ccn(S(=O)(=O)c2ccc(F)c(F)c2)c1)c1ccccn1` [Example 59, N-(1-((3,4-difluorophenyl)sulfonyl)-1H-pyrrol-3-yl)picolinamide] reads 379 nM; that for `O=C(Nc1ccn(S(=O)(=O)Cc2ccc(F)cc2Cl)c1)c1nccs1` [Example 60, N-(1-((2-chloro-4-fluorobenzyl)sulfonyl)-1H-pyrrol-3-yl)thiazole-2-carboxamide], 132 nM; that for `O=C(Nc1ccn(S(=O)(=O)Cc2ccc(F)cc2Cl)c1)c1ccco1` [Example 61, N-(1-((2-chloro-4-fluorobenzyl)sulfonyl)-1H-pyrrol-3-yl)furan-2-carboxamide], 320 nM. Take `O=C(Nc1ccn(S(=O)(=O)Cc2ccccc2Cl)c1)c1cscn1` [Example 62, N-(1-((2-chlorobenzyl)sulfonyl)-1H-pyrrol-3-yl)thiazole-4-carboxamide]: the EC50 under setting [2] was determined as 492 nM. Consider `O=C(Nc1ccn(S(=O)(=O)Cc2ccccc2)c1)c1nccs1` [Example 63, N-(1-(benzylsulfonyl)-1H-pyrrol-3-yl)thiazole-2-carboxamide], for which, under setting [2], the EC50 worked out at 2760 nM. The same measure, in the same setting: the result for `COc1ccc(S(=O)(=O)n2ccc(NC(=O)c3ccccn3)c2)cc1Cl` [Example 64, N-(1-((3-chloro-4-methoxyphenyl)sulfonyl)-1H-pyrrol-3-yl)picolinamide] reads 664 nM; that for `O=C(Nc1ccn(S(=O)(=O)Cc2ccccc2Cl)c1)c1ncccc1F` [Example 65, N-(1-((2-chlorobenzyl)sulfonyl)-1H-pyrrol-3-yl)-3-fluoropicolinamide], 6970 nM; that for `O=C(Nc1ccn(S(=O)(=O)Cc2ccccc2Cl)c1)c1csnn1` [Example 66, N-(1-((2-chlorobenzyl)sulfonyl)-1H-pyrrol-3-yl)-1,2,3-thiadiazole-4-carboxamide], 307 nM. Consider `Cc1cccc(C)c1S(=O)(=O)n1ccc(NC(=O)c2ccco2)c1` [Example 67, N-(1-((2,6-dimethylphenyl)sulfonyl)-1H-pyrrol-3-yl)furan-2-carboxamide], for which, under setting [2], the EC50 is 6130 nM.

Take `O=C(Nc1ccn(S(=O)(=O)Cc2ccc(Br)cc2)c1)c1ccccn1` [Example 70, N-(1-((4-bromobenzyl)sulfonyl)-1H-pyrrol-3-yl)picolinamide]: the EC50 under setting [2] amounted to 144 nM. `COc1ccccc1S(=O)(=O)n1ccc(NC(=O)c2ccccn2)c1` [Example 72, N-(1-((2-methoxyphenyl)sulfonyl)-1H-pyrrol-3-yl)picolinamide]: the half-maximal effective concentration (EC50) under setting [2] was 2060 nM. In the case of `O=C(Nc1ccn(S(=O)(=O)c2ccccc2OC(F)F)c1)c1ccccn1` [Example 73, N-(1-((2-(difluoromethoxy)phenyl)sulfonyl)-1H-pyrrol-3-yl)picolinamide], the EC50 under setting [2] stood at 570 nM. As for `Cc1ccc(S(=O)(=O)n2ccc(NC(=O)c3ccccn3)c2)c(C)c1` [Example 74, N-(1-((2,4-dimethylphenyl)sulfonyl)-1H-pyrrol-3-yl)picolinamide], the EC50 under setting [2] is 880 nM. Same read-out and setting: the result for `Cc1ccc(S(=O)(=O)n2ccc(NC(=O)c3ccccn3)c2)cc1F` [Example 75, N-(1-((3-fluoro-4-methylphenyl)sulfonyl)-1H-pyrrol-3-yl)picolinamide] reads 104 nM. Regarding `Cc1cccc(Cl)c1S(=O)(=O)n1ccc(NC(=O)c2ccccn2)c1` [Example 76, N-(1-((2-chloro-6-methylphenyl)sulfonyl)-1H-pyrrol-3-yl)picolinamide], the EC50 under setting [2] is 988 nM. Same read-out and setting: as for `Cc1cc(S(=O)(=O)n2ccc(NC(=O)c3ccccn3)c2)ccc1F` [Example 77, N-(1-((4-fluoro-3-methylphenyl)sulfonyl)-1H-pyrrol-3-yl)picolinamide], the figure is 396 nM.

The values above are taken from US20130040944A1, “MGLUR4 ALLOSTERIC POTENTIATORS, COMPOSITIONS, AND METHODS OF TREATING NEUROLOGICAL DYSFUNCTION” (VANDERBILT UNIVERSITY, priority 2009, published 2013).
